Experimental data: ChEMBL document CHEMBL1201862, “PubChem BioAssay data set” (2004)
The source made the active and inactive calls.

Columns and labels:
Type in all cases: functional
[1] = HeLa cell cytotoxicity, dose response, cytotoxicity control for MgcRacGAP inhibitor project (AID 624300)
[2] = molecular target: T1, Rac GTPase-activating protein 1 (Homo sapiens, UniProt Q9H0H5); experiment: MgcRacGAP GTPase-activating activity inhibitors, confirmation, biochemical, ADP Hunter fluorescence, primary and confirmatory (AID 624330)
T1 sequence (Q9H0H5 whole entry): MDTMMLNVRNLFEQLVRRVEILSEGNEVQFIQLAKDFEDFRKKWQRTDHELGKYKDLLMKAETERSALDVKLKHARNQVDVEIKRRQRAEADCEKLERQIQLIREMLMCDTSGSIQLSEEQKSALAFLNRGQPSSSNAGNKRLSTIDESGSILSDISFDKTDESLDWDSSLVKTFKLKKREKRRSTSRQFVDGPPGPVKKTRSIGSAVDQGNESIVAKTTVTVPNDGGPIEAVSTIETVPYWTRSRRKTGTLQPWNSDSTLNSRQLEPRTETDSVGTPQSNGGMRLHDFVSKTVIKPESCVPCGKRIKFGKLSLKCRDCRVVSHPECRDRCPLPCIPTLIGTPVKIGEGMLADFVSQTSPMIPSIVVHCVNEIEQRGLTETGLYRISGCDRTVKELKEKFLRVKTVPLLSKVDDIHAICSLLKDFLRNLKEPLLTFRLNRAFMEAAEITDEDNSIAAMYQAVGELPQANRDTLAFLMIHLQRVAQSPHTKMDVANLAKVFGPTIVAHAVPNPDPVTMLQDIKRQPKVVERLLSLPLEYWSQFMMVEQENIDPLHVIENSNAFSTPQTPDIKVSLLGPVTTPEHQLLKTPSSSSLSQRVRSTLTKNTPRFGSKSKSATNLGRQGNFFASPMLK

Vero = experiment: West Nile virus antiviral activity, cell-based, CPE readout (AID 1621); conditions: Chlorocebus sabaeus
[3] = molecular target: T2, High affinity choline transporter 1 (Homo sapiens, UniProt Q9GZV3); experiment: CHT inhibitors, dose response, cell-based, 5-point CRC, membrane potential dye (AID 504840)
T2 sequence (Q9GZV3 whole entry): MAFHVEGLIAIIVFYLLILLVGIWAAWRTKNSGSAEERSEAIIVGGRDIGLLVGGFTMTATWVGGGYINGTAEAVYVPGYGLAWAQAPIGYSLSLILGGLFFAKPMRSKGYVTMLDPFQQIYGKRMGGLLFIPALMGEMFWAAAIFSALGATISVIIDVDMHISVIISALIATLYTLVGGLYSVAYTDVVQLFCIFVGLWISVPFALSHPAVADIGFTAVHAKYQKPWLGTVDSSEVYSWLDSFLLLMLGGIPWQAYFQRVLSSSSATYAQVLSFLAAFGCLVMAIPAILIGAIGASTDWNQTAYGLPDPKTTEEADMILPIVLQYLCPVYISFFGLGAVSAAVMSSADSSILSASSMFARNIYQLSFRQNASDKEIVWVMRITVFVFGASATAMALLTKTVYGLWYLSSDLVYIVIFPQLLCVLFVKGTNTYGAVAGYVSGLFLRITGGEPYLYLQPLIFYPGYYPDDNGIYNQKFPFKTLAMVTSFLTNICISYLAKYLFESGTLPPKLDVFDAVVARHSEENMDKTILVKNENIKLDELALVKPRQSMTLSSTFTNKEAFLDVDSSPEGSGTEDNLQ

[4] = molecular target: T2, High affinity choline transporter 1; experiment: CHT inhibitors, dose response, cell-based, 10-point CRC, membrane potential dye (AID 588401);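 further: membrane potential dye fluorescence of choline-evoked depolarization via CHT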
[5] = molecular target: T3, Apoptotic protease-activating factor 1 (Homo sapiens, UniProt O14727); experiment: SAR analysis of small molecule Activators of Apaf-1 in a Fluorescent assay - set 2.; conditions: read-out: EC50_Mean
T3 sequence (O14727 whole entry): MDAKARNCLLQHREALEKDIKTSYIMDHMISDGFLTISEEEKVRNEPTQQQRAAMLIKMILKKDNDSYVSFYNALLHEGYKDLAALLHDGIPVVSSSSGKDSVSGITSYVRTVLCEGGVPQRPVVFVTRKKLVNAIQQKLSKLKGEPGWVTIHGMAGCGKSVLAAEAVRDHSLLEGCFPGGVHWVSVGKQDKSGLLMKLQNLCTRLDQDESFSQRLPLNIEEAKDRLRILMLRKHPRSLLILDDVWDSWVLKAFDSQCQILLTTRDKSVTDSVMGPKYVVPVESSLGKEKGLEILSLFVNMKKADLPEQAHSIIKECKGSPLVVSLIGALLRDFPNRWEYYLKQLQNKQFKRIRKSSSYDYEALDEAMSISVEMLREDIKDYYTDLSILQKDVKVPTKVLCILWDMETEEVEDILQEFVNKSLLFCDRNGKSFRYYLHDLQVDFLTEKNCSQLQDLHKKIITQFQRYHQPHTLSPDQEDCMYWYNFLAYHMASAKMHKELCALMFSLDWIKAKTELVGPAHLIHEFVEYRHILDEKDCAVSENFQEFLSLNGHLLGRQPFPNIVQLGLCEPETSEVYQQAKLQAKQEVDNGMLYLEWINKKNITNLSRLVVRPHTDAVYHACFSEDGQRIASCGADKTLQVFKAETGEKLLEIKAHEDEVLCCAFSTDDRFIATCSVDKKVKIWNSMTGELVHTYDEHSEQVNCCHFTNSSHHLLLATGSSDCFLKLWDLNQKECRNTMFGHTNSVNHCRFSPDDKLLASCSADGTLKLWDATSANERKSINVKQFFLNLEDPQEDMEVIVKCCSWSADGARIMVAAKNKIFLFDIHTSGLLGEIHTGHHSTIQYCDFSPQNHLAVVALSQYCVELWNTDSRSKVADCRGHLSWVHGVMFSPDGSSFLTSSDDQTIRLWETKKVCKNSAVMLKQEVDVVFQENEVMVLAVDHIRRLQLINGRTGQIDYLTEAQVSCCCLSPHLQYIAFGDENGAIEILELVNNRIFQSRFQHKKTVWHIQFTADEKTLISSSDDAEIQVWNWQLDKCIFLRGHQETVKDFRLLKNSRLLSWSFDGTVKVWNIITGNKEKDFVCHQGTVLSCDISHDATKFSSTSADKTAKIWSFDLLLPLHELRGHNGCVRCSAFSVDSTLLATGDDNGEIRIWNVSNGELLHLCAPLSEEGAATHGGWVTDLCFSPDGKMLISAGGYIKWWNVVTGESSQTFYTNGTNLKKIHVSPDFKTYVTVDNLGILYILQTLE

[6] = SAR analysis of small molecule activators of Apaf-1 using a LZ-Caspase-9/Caspase-3 Fluorescent Selectivity assay - Set 2.; conditions: read-out: EC50_Mean

CCN(CC)CCCC(C)NC(=O)c1c(NC(=O)c2ccccc2)sc2c1CCCC2 (configuration not stated)
CC50 [1]: 100 µM (active)
IC50 [2]: 144 µM (active)
IC50 (Vero): 21.4 µM (active)
IC50 [3]: 2.41 µM (active)
IC50 [4]: 3.36 µM (active)

COc1ccccc1C1=NOC(C(=O)O)C1 (configuration not stated)
EC50 [5]: > 100 µM (inactive)
EC50 [6]: > 100 µM (inactive)
